Laboratory results as given in ChEMBL document CHEMBL3991601, “The target landscape of clinical kinase drugs” (Science, 2017).
Calls of active or inactive are those of the source. Cut-off read from the data, not from the text of the source, for most assays here: actives have a measured Kd and inactives only a lower limit.

Key:
[1] = target: T1, Bone morphogenetic protein receptor type-2 (Homo sapiens, UniProt Q13873)
T1 sequence (Q13873 whole entry): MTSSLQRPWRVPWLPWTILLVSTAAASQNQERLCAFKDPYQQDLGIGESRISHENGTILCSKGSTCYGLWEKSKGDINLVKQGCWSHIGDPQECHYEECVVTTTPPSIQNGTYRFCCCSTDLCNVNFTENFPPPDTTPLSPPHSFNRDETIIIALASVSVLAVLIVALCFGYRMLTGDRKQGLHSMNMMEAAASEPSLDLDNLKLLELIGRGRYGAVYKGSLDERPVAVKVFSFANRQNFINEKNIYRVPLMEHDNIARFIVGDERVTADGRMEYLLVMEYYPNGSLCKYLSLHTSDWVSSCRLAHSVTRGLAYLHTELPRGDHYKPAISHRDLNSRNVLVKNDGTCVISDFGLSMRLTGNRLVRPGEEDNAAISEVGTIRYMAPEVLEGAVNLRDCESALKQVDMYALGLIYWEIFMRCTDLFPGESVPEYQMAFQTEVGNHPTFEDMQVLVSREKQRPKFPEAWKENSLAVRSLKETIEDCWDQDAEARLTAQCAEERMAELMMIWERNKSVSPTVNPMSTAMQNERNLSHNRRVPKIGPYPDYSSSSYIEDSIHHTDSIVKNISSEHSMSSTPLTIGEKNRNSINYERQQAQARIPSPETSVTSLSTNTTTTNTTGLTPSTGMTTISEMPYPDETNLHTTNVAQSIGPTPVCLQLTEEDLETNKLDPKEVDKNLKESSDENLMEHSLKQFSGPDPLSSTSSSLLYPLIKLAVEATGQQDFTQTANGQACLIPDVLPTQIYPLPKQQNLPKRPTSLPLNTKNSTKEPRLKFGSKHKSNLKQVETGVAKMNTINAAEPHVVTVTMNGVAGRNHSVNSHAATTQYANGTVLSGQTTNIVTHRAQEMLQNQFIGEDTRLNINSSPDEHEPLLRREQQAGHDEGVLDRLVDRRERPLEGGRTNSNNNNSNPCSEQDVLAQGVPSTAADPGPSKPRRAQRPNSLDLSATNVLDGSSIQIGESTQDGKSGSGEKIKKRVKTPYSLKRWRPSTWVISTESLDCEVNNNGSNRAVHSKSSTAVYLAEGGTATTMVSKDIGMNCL

[2] = target: Mitogen-activated protein kinase kinase kinase kinase 4 (Homo sapiens, UniProt O95819)
[3] = target: T2, Phosphorylase b kinase gamma catalytic chain, liver/testis isoform (Homo sapiens, UniProt P15735)
T2 sequence (P15735 whole entry): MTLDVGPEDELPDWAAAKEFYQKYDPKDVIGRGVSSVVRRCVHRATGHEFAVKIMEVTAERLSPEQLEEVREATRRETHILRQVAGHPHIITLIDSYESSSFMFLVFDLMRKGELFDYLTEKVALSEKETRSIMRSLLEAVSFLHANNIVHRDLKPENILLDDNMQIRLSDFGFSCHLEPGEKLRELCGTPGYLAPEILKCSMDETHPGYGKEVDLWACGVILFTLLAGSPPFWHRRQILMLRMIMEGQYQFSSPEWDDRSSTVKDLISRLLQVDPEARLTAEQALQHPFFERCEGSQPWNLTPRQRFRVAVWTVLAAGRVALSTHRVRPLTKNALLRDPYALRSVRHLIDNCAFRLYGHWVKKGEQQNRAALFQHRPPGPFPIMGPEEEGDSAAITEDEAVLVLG

[4] = target: Serine/threonine-protein kinase N1 (Homo sapiens, UniProt Q16512)
[5] = target: Proto-oncogene tyrosine-protein kinase Src (Homo sapiens, UniProt P12931)
[6] = target: Tyrosine-protein kinase SYK (Homo sapiens, UniProt P43405)
[7] = target: T3, Cytochrome c1, heme protein, mitochondrial (Homo sapiens, UniProt P08574)
T3 sequence (P08574 whole entry): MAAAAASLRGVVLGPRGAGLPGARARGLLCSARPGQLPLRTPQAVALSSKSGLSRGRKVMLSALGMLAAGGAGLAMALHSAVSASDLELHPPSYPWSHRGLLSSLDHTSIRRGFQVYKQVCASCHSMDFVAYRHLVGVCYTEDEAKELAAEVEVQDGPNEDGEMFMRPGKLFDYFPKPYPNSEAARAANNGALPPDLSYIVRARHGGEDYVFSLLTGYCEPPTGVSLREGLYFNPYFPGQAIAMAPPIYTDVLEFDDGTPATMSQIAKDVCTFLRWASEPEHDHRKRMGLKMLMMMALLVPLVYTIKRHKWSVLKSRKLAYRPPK

[8] = target: T4, ATP-dependent RNA helicase DDX1 (Homo sapiens, UniProt Q92499)
T4 sequence (Q92499 whole entry): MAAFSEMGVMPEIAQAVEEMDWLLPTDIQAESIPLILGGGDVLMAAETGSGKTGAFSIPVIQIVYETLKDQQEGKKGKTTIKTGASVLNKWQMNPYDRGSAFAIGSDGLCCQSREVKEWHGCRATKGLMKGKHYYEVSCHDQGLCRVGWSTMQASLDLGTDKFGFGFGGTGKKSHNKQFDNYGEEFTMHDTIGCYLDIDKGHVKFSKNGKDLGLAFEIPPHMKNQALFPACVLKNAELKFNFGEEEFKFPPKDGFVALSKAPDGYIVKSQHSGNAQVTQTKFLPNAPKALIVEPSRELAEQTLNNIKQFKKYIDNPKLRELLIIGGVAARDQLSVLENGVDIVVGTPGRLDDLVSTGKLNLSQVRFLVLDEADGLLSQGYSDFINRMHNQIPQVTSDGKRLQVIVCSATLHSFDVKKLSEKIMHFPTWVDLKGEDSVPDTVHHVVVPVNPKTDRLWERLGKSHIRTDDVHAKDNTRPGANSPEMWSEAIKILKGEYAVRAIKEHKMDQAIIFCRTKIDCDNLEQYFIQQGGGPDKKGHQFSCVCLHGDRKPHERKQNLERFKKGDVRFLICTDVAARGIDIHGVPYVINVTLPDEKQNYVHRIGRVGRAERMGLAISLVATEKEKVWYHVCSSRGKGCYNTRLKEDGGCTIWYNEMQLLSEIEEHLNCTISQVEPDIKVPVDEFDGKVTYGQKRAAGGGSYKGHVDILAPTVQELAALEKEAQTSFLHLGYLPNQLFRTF
Note: in the data inactive means no Kd found up to 30 µM.

Chain of Serine/threonine-protein kinase N1 (Q16512 whole entry): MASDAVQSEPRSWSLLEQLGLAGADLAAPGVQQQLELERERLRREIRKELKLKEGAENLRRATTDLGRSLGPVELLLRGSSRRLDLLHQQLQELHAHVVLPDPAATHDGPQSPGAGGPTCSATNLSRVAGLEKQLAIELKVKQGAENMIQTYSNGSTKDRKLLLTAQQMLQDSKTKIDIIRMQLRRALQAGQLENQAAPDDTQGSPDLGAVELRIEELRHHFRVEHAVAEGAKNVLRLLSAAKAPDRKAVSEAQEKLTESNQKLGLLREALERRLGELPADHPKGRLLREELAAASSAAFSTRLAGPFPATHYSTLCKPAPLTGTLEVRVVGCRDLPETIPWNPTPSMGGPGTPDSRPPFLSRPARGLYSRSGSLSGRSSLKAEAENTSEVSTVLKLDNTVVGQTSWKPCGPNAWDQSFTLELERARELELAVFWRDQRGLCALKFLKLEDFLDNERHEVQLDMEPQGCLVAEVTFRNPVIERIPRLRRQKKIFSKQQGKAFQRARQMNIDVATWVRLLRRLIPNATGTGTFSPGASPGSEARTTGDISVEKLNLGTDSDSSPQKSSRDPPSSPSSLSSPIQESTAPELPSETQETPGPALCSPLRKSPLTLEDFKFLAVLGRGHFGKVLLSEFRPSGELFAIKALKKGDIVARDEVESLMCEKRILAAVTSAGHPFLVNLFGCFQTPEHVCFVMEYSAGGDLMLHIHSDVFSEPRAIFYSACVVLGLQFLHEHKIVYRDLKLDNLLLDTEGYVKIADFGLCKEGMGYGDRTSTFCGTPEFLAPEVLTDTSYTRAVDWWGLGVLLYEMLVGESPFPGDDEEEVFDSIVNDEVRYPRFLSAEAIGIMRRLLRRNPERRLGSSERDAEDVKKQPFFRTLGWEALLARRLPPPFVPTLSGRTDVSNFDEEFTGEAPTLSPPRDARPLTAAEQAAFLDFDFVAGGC
Chain of Mitogen-activated protein kinase kinase kinase kinase 4 (O95819 whole entry, canonical isoform): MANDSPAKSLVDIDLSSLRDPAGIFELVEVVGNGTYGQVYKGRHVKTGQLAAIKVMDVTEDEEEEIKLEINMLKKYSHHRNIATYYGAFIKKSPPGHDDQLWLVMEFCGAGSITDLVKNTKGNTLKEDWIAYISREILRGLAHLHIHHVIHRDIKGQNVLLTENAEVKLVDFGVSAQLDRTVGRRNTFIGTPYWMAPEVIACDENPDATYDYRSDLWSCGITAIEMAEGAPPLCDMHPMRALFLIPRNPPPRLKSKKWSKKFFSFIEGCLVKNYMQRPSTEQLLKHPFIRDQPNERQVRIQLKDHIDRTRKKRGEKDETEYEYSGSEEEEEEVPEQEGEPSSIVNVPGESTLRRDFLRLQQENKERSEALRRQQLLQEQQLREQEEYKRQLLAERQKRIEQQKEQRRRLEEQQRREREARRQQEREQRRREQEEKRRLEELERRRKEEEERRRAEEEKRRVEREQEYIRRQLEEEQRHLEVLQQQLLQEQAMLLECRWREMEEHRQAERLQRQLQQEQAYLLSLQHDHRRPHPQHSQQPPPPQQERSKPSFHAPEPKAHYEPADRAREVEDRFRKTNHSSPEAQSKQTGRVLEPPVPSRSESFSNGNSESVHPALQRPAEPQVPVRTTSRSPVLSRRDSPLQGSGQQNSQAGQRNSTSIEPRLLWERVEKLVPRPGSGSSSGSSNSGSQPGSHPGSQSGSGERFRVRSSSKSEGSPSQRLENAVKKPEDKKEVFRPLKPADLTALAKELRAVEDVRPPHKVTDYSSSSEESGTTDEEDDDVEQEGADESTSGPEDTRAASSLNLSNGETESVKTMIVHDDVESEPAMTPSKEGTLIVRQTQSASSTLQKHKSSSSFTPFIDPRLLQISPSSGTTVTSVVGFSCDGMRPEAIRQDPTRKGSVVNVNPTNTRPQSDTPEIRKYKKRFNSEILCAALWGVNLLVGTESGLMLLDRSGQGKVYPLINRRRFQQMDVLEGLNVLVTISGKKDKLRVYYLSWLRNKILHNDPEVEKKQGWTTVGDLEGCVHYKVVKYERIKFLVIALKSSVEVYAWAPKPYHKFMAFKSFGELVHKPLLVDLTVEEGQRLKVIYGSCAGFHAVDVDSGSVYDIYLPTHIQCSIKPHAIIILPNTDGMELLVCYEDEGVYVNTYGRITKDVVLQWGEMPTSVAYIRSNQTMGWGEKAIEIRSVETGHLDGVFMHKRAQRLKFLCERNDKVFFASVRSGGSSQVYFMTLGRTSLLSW
Chain of Proto-oncogene tyrosine-protein kinase Src (P12931 2-536 limits assumed): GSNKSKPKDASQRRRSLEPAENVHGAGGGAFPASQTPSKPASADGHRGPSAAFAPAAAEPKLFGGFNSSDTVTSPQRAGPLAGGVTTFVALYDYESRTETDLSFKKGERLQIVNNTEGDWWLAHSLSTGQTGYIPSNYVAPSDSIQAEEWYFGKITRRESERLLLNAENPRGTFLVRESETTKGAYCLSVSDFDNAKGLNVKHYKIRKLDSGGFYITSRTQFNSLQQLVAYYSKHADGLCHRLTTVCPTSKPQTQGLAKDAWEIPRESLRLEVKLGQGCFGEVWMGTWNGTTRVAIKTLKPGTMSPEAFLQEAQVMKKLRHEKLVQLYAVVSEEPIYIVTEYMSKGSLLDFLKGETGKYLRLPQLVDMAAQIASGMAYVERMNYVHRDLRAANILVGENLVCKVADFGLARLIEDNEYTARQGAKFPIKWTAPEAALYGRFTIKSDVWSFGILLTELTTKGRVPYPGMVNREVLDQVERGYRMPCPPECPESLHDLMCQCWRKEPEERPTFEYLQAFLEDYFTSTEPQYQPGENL

C[C@@H](Oc1cc(C(=O)Nc2ccc(C(=O)N3CCN(C)CC3)cc2)nnc1N)c1c(Cl)ccc(F)c1Cl
Kd [1]: > 30 µM (inactive)
Kd [2]: > 30 µM (inactive)
Kd [3]: > 30 µM (inactive)
Kd [4]: > 30 µM (inactive)
Kd [5]: > 30 µM (inactive)
Kd [6]: > 30 µM (inactive)

C[C@H]1CNCCCN1S(=O)(=O)c1cccc2cncc(F)c12
Kd [1]: > 30 µM (inactive)
Kd [7]: > 30 µM (inactive)
Kd [8]: > 30 µM (inactive)
Kd [2]: > 30 µM (inactive)
Kd [3]: > 30 µM (inactive)
Kd [4]: 0.416 µM (active)
Kd [5]: > 30 µM (inactive)
Kd [6]: > 30 µM (inactive)

CC(=O)c1cnc2ccc(-c3cc(Cl)c(O)c(Cl)c3)nc2c1N[C@H]1CC[C@H](CN(C)C)CC1
Kd [1]: > 30 µM (inactive)
Kd [7]: > 30 µM (inactive)
Kd [8]: > 30 µM (inactive)
Kd [2]: 0.088 µM
Kd [3]: 0.397 µM (active)
Kd [4]: 0.244 µM (active)
Kd [5]: > 30 µM (inactive)
Kd [6]: > 30 µM (inactive)

CCNC(=O)C#Cc1ccc2c(c1)NC(=O)/C2=C(\Nc1ccc(CN(C)C)cc1)c1ccccc1
Kd [1]: > 30 µM (inactive)
Kd [7]: > 30 µM (inactive)
Kd [8]: > 30 µM (inactive)
Kd [2]: > 30 µM (inactive)
Kd [3]: > 30 µM (inactive)
Kd [4]: > 30 µM (inactive)
Kd [5]: 0.491 µM (active)
Kd [6]: > 30 µM (inactive)

C=CC(=O)N1CCC[C@H](n2c(=O)n(-c3ccc(Oc4ccccc4)cc3)c3c(N)ncnc32)C1
Kd [1]: > 30 µM (inactive)
Kd [7]: > 30 µM (inactive)
Kd [8]: > 30 µM (inactive)
Kd [2]: > 30 µM (inactive)
Kd [3]: > 30 µM (inactive)
Kd [4]: > 30 µM (inactive)
Kd [5]: 0.004 µM
Kd [6]: > 30 µM (inactive)

Cc1nc2cc(-c3nn(C(C)C)c4ncnc(N)c34)ccc2o1
Kd [1]: > 30 µM (inactive)
Kd [7]: > 30 µM (inactive)
Kd [8]: > 30 µM (inactive)
Kd [3]: > 30 µM (inactive)
Kd [4]: > 30 µM (inactive)
Kd [5]: > 30 µM (inactive)
Kd [6]: > 30 µM (inactive)

COCc1c(-c2ccc(NC(=O)Nc3cc(C(F)(F)F)ccc3F)c(F)c2)c2c(N)ncnn2c1CN1CCOCC1
Kd [1]: > 30 µM (inactive)
Kd [7]: > 30 µM (inactive)
Kd [8]: > 30 µM (inactive)
Kd [2]: > 30 µM (inactive)
Kd [3]: > 30 µM (inactive)
Kd [4]: > 30 µM (inactive)
Kd [5]: > 30 µM (inactive)
Kd [6]: > 30 µM (inactive)

COc1cc(Nc2ncc3c(n2)-c2ccc(Cl)cc2C(c2c(F)cccc2OC)=NC3)ccc1C(=O)O [ALISERTIB]
Kd [1]: > 30 µM (inactive)
Kd [7]: > 30 µM (inactive)
Kd [8]: > 30 µM (inactive)
Kd [4]: > 30 µM (inactive)
Kd [5]: > 30 µM (inactive)

O=C(Nc1c[nH]nc1-c1nc2cc(CN3CCOCC3)ccc2[nH]1)NC1CC1 [AT-9283]
Kd [1]: 0.043 µM (active)
Kd [7]: > 30 µM (inactive)
Kd [8]: > 30 µM (inactive)
Kd [6]: 0.116 µM (active)

CNC(=O)c1ccccc1Sc1ccc2c(/C=C/c3ccccn3)n[nH]c2c1 [AXITINIB]
Kd [7]: > 30 µM (inactive)
Kd [8]: > 30 µM (inactive)

NC(=O)Nc1cc(-c2cccc(F)c2)sc1C(=O)N[C@H]1CCCNC1 [AZD-7762]
Kd [1]: > 30 µM (inactive)
Kd [8]: > 30 µM (inactive)
Kd [2]: 0.035 µM (active)
Kd [3]: > 30 µM (inactive)
Kd [4]: 2.16 µM (active)
Kd [5]: 0.109 µM (active)
Kd [6]: 1.48 µM (active)

Cn1cc(C2=C(c3cn(C4CCN(Cc5ccccn5)CC4)c4ccccc34)C(=O)NC2=O)c2ccccc21 [ENZASTAURIN]
Kd [7]: > 30 µM (inactive)
Kd [8]: > 30 µM (inactive)

C[C@@H](Oc1cc(-n2cnc3ccc(CN4CCN(C)CC4)cc32)sc1C(N)=O)c1ccccc1C(F)(F)F [GSK-461364]
Kd [7]: > 30 µM (inactive)
Kd [8]: > 30 µM (inactive)

CCn1cc(-c2ccnc3[nH]c(-c4cccc(CN(C)C)c4)cc23)c(-c2ccc(NC(=O)N(C)C)cc2)n1 [GSK-1070916]
Kd [1]: > 30 µM (inactive)
Kd [7]: > 30 µM (inactive)
Kd [8]: > 30 µM (inactive)
Kd [3]: > 30 µM (inactive)
Kd [4]: > 30 µM (inactive)
Kd [6]: > 30 µM (inactive)

CNC(=O)c1nn(C)c2c1C(C)(C)Cc1cnc(Nc3ccc(N4CCN(C)CC4)cc3)nc1-2 [MILCICLIB]
Kd [1]: > 30 µM (inactive)
Kd [7]: > 30 µM (inactive)
Kd [2]: > 30 µM (inactive)
Kd [3]: 18.6 µM
Kd [4]: > 30 µM (inactive)
Kd [5]: 5.31 µM (active)
Kd [6]: > 30 µM (inactive)

Cc1[nH]c(/C=C2\C(=O)Nc3ccccc32)c(C)c1CCC(=O)O [ORANTINIB]
Kd [1]: 0.019 µM (active)
Kd [7]: > 30 µM (inactive)
Kd [8]: > 30 µM (inactive)
Kd [4]: > 30 µM (inactive)

NC(=O)c1c(OCc2c(F)cc(Br)cc2F)nsc1NC(=O)NCCCCN1CCCC1 [OSI-632]
Kd [1]: > 30 µM (inactive)
Kd [7]: > 30 µM (inactive)

Cc1nc(Nc2n[nH]c3c2CN(C(=O)N[C@H](CN(C)C)c2ccccc2)C3(C)C)c2sccc2n1 [PF-03758309]
Kd [1]: > 30 µM (inactive)
Kd [7]: > 30 µM (inactive)
Kd [8]: > 30 µM (inactive)
Kd [2]: > 30 µM (inactive)
Kd [3]: 0.053 µM (active)
Kd [5]: 2.08 µM (active)
Kd [6]: > 30 µM (inactive)

CC(=O)NCC(=O)N1[C@@H]2CC[C@H]1c1ccc(Nc3ncc(C(F)(F)F)c(NC4CCC4)n3)cc12 [PF-03814735]
Kd [1]: 0.008 µM
Kd [7]: > 30 µM (inactive)
Kd [8]: > 30 µM (inactive)
Kd [4]: 2.94 µM (active)

CNC(=O)c1cc(Oc2ccc(NC(=O)Nc3cc(C(C)(C)C)nn3-c3ccc4ncccc4c3)c(F)c2)ccn1 [REBASTINIB]
Kd [1]: > 30 µM (inactive)
Kd [7]: > 30 µM (inactive)
Kd [8]: > 30 µM (inactive)
Kd [2]: 2.71 µM (active)
Kd [3]: > 30 µM (inactive)
Kd [4]: > 30 µM (inactive)
Kd [6]: 1.83 µM (active)

O=C(NOCCO)c1cc(CN2OCCCC2=O)c(F)c(F)c1Nc1ccc(I)cc1F [RO-4987655]
Kd [7]: > 30 µM (inactive)
Kd [8]: > 30 µM (inactive)

N#CC[C@H](C1CCCC1)n1cc(-c2ncnc3[nH]ccc23)cn1 [RUXOLITINIB]
Kd [7]: > 30 µM (inactive)
Kd [8]: > 30 µM (inactive)

CN1CCN(CCOc2cc(OC3CCOCC3)c3c(Nc4c(Cl)ccc5c4OCO5)ncnc3c2)CC1 [SARACATINIB]
Kd [1]: > 30 µM (inactive)
Kd [7]: > 30 µM (inactive)
Kd [8]: > 30 µM (inactive)
Kd [2]: 1.12 µM (active)
Kd [3]: > 30 µM (inactive)
Kd [4]: > 30 µM (inactive)
Kd [6]: > 30 µM (inactive)
